The text below walks through data of patent publication US20240307480A1, “MELFLUFEN FOR USE IN THE TREATMENT OF MULTIPLE MYELOMA” (Oncopeptides AB, priority 2021, published 2024).

For the assay, the system named is patients with relapsed refractory multiple myeloma (RRMM) refractory to lenalidomide. Briefly: Randomized, controlled, open-label, Phase 3 multicenter study of melflufen+dexamethasone versus pomalidomide+dexamethasone (Example 1). In kind it is in vivo, human. The note with it: for OS / PFS: no stem cell transplant. As for the experimental part: Patients received either melflufen+dexamethasone or pomalidomide+dexamethasone.
Patients were randomized to either one of two arms (see Table 1 below): • Arm A: Melphalan flufenamide (Melflufen) 40 mg on Day 1 and dexamethasone 40 mg on Days 1, 8, 15 and 22 of each 28-day cycle. • Arm B: Pomalidomide 4 mg daily on Days 1 to 21 and dexamethasone 40 mg on Days 1, 8, 15 and 22 of each 28-day cycle.
Dose modifications and delays in therapy were implemented based on patient tolerability as detailed in the protocol. In the event of a cycle delay, unrelated to dexamethasone toxicity, it was recommended to continue dexamethasone weekly.
• Study Type: Interventional (Clinical Trial) • Actual Enrollment: 495 participants • Allocation: Randomized • Intervention Model: Parallel Assignment • Masking: Single (Outcomes Assessor) • Primary Purpose: Treatment • Official Title: A Randomized, Controlled, Open-label, Phase 3 Study of Melflufen/Dexamethasone Compared With Pomalidomide/Dexamethasone for Patients With Relapsed Refractory Multiple Myeloma Who Are Refractory to Lenalidomide
• 1. Progression Free Survival (PFS) [Time Frame: From randomization to time of progression, or, if no progression, 24 months after end of treatment]: To compare the PFS of melflufen plus dexamethasone (Arm A) versus pomalidomide plus dexamethasone (Arm B) as assessed by the Independent Review Committee (IRC) according to the International Myeloma Working Group Uniform Response Criteria (IMWG-URC)
• 1. […] Overall Survival (OS) [Time Frame: From randomization until end of study (2 years after confirmed progression)]: To assess and compare OS in Arm A versus Arm B • 4. Safety and Tolerability: Number of patients with treatment-emergent adverse events, including clinical laboratory and vital signs abnormalities, as assessed by CTCAE v4.0 [Time Frame: From start of dosing until 30 days after last dose]: To assess and compare safety and tolerability in Arm A versus Arm B. Number of patients with treatment-emergent adverse events, including clinical laboratory and vital signs abnormalities, as assessed by CTCAE v4.0 will be presented. No formal statistical analysis will be performed for safety endpoints.
• 1. Male or female, age 18 years or older • 2. A prior diagnosis of multiple myeloma with documented disease progression requiring further treatment at time of screening • 3. Measurable disease defined as any of the following: • Serum monoclonal protein ≥0.5 g/dl by protein electrophoresis. • ≥200 mg/24 hours of monoclonal protein in the urine on 24-hour electrophoresis • Serum free light chain ≥10 mg/dl AND abnormal serum kappa to lambda free light chain ratio • 4. Received 2-4 prior lines of therapy, including lenalidomide and a PI, either sequential or in the same line, and is refractory (relapsed and refractory or refractory) to both the last line of therapy and to lenalidomide (≥10 mg) administered within 18 months prior to randomization. Refractory to lenalidomide is defined as progression while on lenalidomide therapy or within 60 days of last dose, following at least 2 cycles of lenalidomide with at least 14 doses of lenalidomide per cycle • 5. Life expectancy of ≥6 months • 6. Eastern Cooperative Oncology Group (ECOG) performance status ≤2 • 7. […] Participants must agree to ongoing pregnancy testing. All patients must be willing to comply with all requirements of the USA pomalidomide Risk Evaluation and Mitigation Strategy (REMS) program or the pomalidomide Pregnancy Prevention Plan (PPP) • 8. Ability to understand the purpose and risks of the study and provide signed and dated informed consent • 9. 12-lead Electrocardiogram (ECG) with QT interval calculated by Fridericia Formula (QTcF) interval of ≤470 msec Fridericia Formula • 10. […] Must be able to take antithrombotic prophylaxis • 12. Must have, or be willing to have an acceptable central catheter.

Where [1] appears, read: excluding patients who had received a stem cell transplant and progressed in under 36 months (melflufen+dex n=145, pomalidomide+dex n=148).
[2] abbreviates: subgroup patients under 65 years.
The mark [3] stands for this setting: patients 75 or over who received melflufen, pomalidomide comparator worded as patients who had not received a stem cell transplant.
Where [4] appears, read: patients who had not received a stem cell transplant as a past treatment (melflufen n=121, pomalidomide n=129), each arm with dexamethasone.
Setting [5] is: stem cell transplant at least 5 years ago, melflufen in relation to pomalidomide, value below 1 favours melflufen.

For `Nc1cccc2c1C(=O)N(C1CCC(=O)NC1=O)C2=O` (stereo not shown) [pomalidomide, reference compound], the “median overall survival (OS)” value runs as follows: under setting [1], 19.8 months; under setting [3], 8.3 months; under setting [4], 16.5 months. For the same compound, the OS came to 15.0 (subgroup 64 to 74 years); 8.1 (subgroup 75 years and over); 18.2 (subgroup age under 75 years). Further, the PFS is 3.9 (subgroup 64 to 74 years); 4.9 (subgroup 75 years and over); 4.3 (subgroup age under 75 years); 4.7 under setting [2]. In addition, the “median PFS” value under setting [3] turned out to be 4.6 months. In addition, the “median progression free survival (PFS)” value under setting [4] was found to be 4.6 months.
On to `CCOC(=O)[C@H](Cc1ccc(F)cc1)NC(=O)[C@@H](N)Cc1ccc(N(CCCl)CCCl)cc1.Cl` [melflufen, L-melphalanyl-4-fluoro-L-phenylalanine ethyl ester], for which the “median overall survival (OS)” value runs as follows: under setting [1], 23.6 months; under setting [3], 21.6 months; under setting [4], 21.6 months. In addition, the OS is, setting by setting: (subgroup 64 to 74 years) 22.2; (subgroup 75 years and over) 14.8; (subgroup age under 75 years) 22.2; under setting [2], 27.5. In addition, the PFS is 9.3 (subgroup 64 to 74 years); 9.3 (subgroup 75 years and over); 9.4 (subgroup age under 75 years); 10.8 under setting [2]. The “median PFS” value under setting [3] is recorded as 9.4 months. Moreover, the “median progression free survival (PFS)” value under setting [4] came to 9.3 months. Besides, the “hazard ratio (PFS)” value (stem cell transplant 2.5 to 5 years ago, melflufen in relation to pomalidomide, value below 1 favours melflufen) worked out at 0.83. Besides, the OS hazard ratio under setting [5] stood at 0.87. Also, the PFS hazard ratio under setting [5] is recorded as 0.76.
